Data published in patent US20230381275A1, “MUSCULAR FUNCTION IMPROVING AGENT FOR SKELETAL MUSCLE OF WHICH FUNCTION IS DEGRADED DUE TO AGING” (OSAKA UNIVERSITY, priority 2020, published 2023).

Tests used:
fibroblasts [1] = conditions: see Patent Document 1; cited from earlier work
[2] = tested on: animal models of injured skeletal muscle; conditions: local administration, Non-Patent Document 7, Patent Document 5; cited from earlier work
[3] = tested on: aging-accelerated model mice (SAMP10); assay: Exercise evaluation on treadmill, mean workload (Example 4); assay type: in vivo; conditions: SV-treated group (training and SV peptide) relative to PBS group; FIG. 6
Method: Aging-accelerated model mice (SAMP10 28 weeks old) were trained on a treadmill (MK-680; Muromachi Kikai Co., Ltd.) (18 m/min×90 min) and subsequent SV peptide administration was performed according to the schedule in the following table. After 30 weeks of age, training was performed continuously from Monday to Friday of each week. SV peptides were added to PBS to adjust to a concentration of 1 μg/ml or 20 ng/ml for injection formulation. Localized injections were made into the bilateral leg muscles of each mouse anesthetized by inhalation with sevoflurane immediately after training on Tuesday and Friday (SV group). Exercise evaluations were performed after SV peptide localization on Friday.
Exercise evaluations were conducted for endurance evaluation, in which the belt speed on the treadmill was increased incrementally at regular intervals, and for slope-up evaluation, in which the belt incline was increased incrementally at regular intervals. […]
The mean workload was calculated as the mean value of workload calculated by multiplying body weight, running time, slope (grade), running speed, and gravitational acceleration g(9.8 m/s^2) for each mouse in each group by […].

fibroblasts [4] = conditions: Non-Patent Documents 5, 6, Patent Documents 1-4; cited from earlier work
[5] = tested on: aging-accelerated model mice; assay: Mean cross-sectional area of muscle fibers, HE staining, 51-week-old mice (Example 5); assay type: in vivo
Method: In this example, the training schedule and SV peptide administration concentration were changed from Example 4, and exercise evaluation (endurance evaluation) was conducted in aging-accelerated model mice when SV peptide was continuously administered. In addition, the cross-sectional area of muscle fibers (gastrocnemius (type I, type IIa, type IIb), extensor digitorum longus, and tibialis anterior muscles) were evaluated in mice that continued training and SV peptide administration until 51 weeks of age.
Aging-accelerated model mice were trained on a treadmill (MK-680; Muromachi Kikai Co., Ltd.) (18 m/min×90 min) and subsequent SV peptide administration was performed according to the schedule in the following table. 30 weeks of age and thereafter, training was performed continuously from Monday to Friday of each week. SV peptide was added to PBS to adjust to a concentration of 1 μg/ml for an injection formulation and localized to the bilateral leg muscles of each mouse anesthetized by inhalation with sevoflurane immediately after training on Tuesday and Friday (SV group; twice weekly administration). Exercise evaluations were performed every other Friday.
The gastrocnemius, extensor digitorum longus, and tibialis anterior muscles of the lower limbs were removed from 51-week-old aging-accelerated model mice, and after sections were prepared according to the standard method, the cross-sectional area of muscle fibers was measured by HE staining. […] The mean cross-sectional area of muscle fibers was also measured for each type of gastrocnemius muscle fiber (type I, type IIa, and type IIb). The mean cross-sectional area of muscle fibers was the mean of more than 50 fibers of each muscle fiber type.

[6] = tested on: aging-accelerated model mice; assay: Endurance evaluation test on treadmill (Example 7); assay type: in vivo
Method: In this example, the number of SV peptide doses and dosage in Example 4 were changed as shown in the following table, and exercise evaluation (endurance evaluation) was performed when SV peptide was continuously administered to aging-accelerated model mice. The conditions other than the number of SV peptide doses and dosage were the same as in Example 4.
Specifically, SV peptide was added to PBS to adjust to a concentration of 20 μg/ml for the injectable formulation, and localized to the bilateral lower limb muscles of each mouse anesthetized by inhalation with sevoflurane immediately after training once every 4 weeks (Friday) (SV group; once every 4 weeks).
The results of the endurance evaluation test are shown in FIG. 14 with a graph showing the mean running distance for the SV group (n=6) and the PBS group (n=6). In addition, graphs showing the difference between the mean running distance on the reference date (30 weeks of age) and the mean running distance in each test are shown in FIGS. 15 and 16. […] In FIG. 16, the sum of the absolute difference in mean running distance relative to the reference date in the SV group and the absolute difference in mean running distance relative to the reference date in the PBS group is shown as the SV treatment effect.
The change over time in the mean maximum speed in each group is shown in FIG. 17, and graphs showing the difference between the mean maximum speed on the reference date and the mean maximum speed on each test date are shown in FIGS. 18 and 19. […] In FIG. 19, the sum of the absolute difference in mean running distance relative to the reference date in the SV group and the absolute difference in mean running distance relative to the reference date in the PBS group is shown as the SV treatment effect. The treatment effect of more than 0.15 m/sec was confirmed at 34 and 39-41 weeks.

[7] = tested on: aging-accelerated model mice (SAMP10); assay: Mean cross-sectional area of muscle fibers, HE staining, 40-week-old mice (Example 3); assay type: in vivo; conditions: 40-week-old SAMP10 mice; treadmill training plus SV peptide 20 ng/ml; vs PBS control; FIG. 3B
Method: In this example, we evaluated muscle fibers in aging-accelerated model mice after continuous administration of SV peptide.
Aging-accelerated model mice (SAMP10 21 weeks old) were trained on a treadmill (MK-680; Muromachi Kikai Co., Ltd.) (18 m/min×90 min) and subsequent SV peptide administration was performed according to the same schedule as in Example 1. After 36 weeks of age, training on the treadmill and subsequent SV peptide administration were conducted under the same conditions as at 35 weeks of age, and continued until the aging-accelerated model mice reached 40 weeks of age. In the control group, after training under the same conditions as the experimental group, PBS was injected into the bilateral lower limb muscles instead of SV peptide.
The gastrocnemius and soleus muscles of the lower limbs were then removed from 40-week-old aging-accelerated model mice, sections were prepared according to the standard method, and HE staining was performed.

[8] = SV group vs PBS group, mean of more than 50 fibers, FIGS. 10 and 11
[9] = SV peptide 1 μg/ml plus training from 28 to 51 weeks, vs PBS group, FIG. 9

SVVYGLR [SV peptide, peptide consisting of 7 amino acids (SVVYGLR]
type III collagen production-promoting effect / type III collagen secretion (fibroblasts [1]): promoting | diameter of regenerated muscle fibers [2]: significantly higher | muscle tissue regeneration [2]: promotes muscle tissue regeneration | mean workload [3]: higher workload relative to the PBS group | differentiation of fibroblasts to myofibroblasts (fibroblasts [4]): promoting | cross-sectional area of type I gastrocnemius muscle fibers [5, 8]: increased compared to the PBS group | cross-sectional area of type IIa gastrocnemius muscle fibers [5, 8]: increased compared to the PBS group | cross-sectional area of type IIb gastrocnemius muscle fibers [5, 8]: increased compared to the PBS group | mean cross-sectional area of muscle fibers, extensor digitorum longus muscle [5, 9]: significantly larger than that in the PBS group | mean cross-sectional area of muscle fibers, gastrocnemius muscle [5, 9]: significantly larger than that in the PBS group | mean cross-sectional area of muscle fibers, tibialis anterior muscle [5, 9]: significantly larger than that in the PBS group | SV treatment effect (sum of absolute differences relative to the reference date of SV group and PBS group) ([6]; FIG. 19, at 34 and 39-41 weeks, SV peptide 20 μg/ml once every 4 weeks plus training): more than 0.15 m/sec | mean maximum speed ([6]; SV group, 20 μg/ml once every 4 weeks plus training, at 41 weeks of age vs 30 weeks of age): same mean maximum speed at 41 weeks of age as at 30 weeks of age | decrease in the mean maximum speed during the test period ([6]; SV group, 20 μg/ml once every 4 weeks plus training, compared to the PBS group): able to suppress the decrease in the mean maximum speed | mean speed (mean maximum speed) ([6]; SV group, 20 μg/ml once every 4 weeks plus training, test from 31 to 36 weeks of age, FIG. 17): continuous increase | mean running distance ([6]; SV group, SV peptide 20 μg/ml once every 4 weeks plus training, at 41 weeks of age vs 30 weeks of age): exceeded that of 30 weeks of age | mean running distance ([6]; SV group, SV peptide 20 μg/ml once every 4 weeks plus training, from 31 to 36 weeks of age, FIGS. 14-16): increased significantly | mean cross-sectional area of fast muscle fibers (gastrocnemius muscle) [7]: significantly higher than in the control group | mean cross-sectional area of slow muscle fibers (soleus muscle) [7]: significantly higher than in the control group
